Test results: the NIST ThermoML archive (doi:10.1016/j.jct.2012.09.003)

Experiments:
[1] = 298.15 K, 101.33 kPa, Liquid; for viscosity: Capillary tube (Ostwald / Ubbelohde) method; for speed of sound: Linear variable-path acoustic interferometer; for mass density: Vibrating tube method
[2] = cn = amount concentration of the nth substance listed, in mol/dm3; settings: 298.15 K, 101 kPa, Liquid; for viscosity: Capillary tube (Ostwald / Ubbelohde) method; for speed of sound: Linear variable-path acoustic interferometer; for mass density: Vibrating tube method

CC(=O)N(C)C [N,N-dimethylethanamide]
[1]
Settings	mass density [kg/m3]	speed of sound [m/s]	viscosity [mPa·s]
–	936.8	1458.5	0.923

C[S+](C)[O-] [dimethyl sulfoxide]
[1]
Settings	mass density [kg/m3]	speed of sound [m/s]	viscosity [mPa·s]
–	1096.02	1490.8	1.946

CN(C)C=O [dimethylformamide]
[1]
Settings	mass density [kg/m3]	speed of sound [m/s]	viscosity [mPa·s]
–	944.5	1451.7	0.794

CCCC[P+](CCCC)(CCCC)CCCC.F[B-](F)(F)F [tetrabutylphosphonium tetrafluoroborate] + CC(=O)N(C)C
[2]
Settings	mass density [kg/m3]	speed of sound [m/s]	viscosity [mPa·s]
c1 = 0.0053	937.22	1461.8	0.93
c1 = 0.0215	938.69	1473.5	0.949
c1 = 0.0377	940.34	1486.9	0.968
c1 = 0.0541	942.13	1501.6	0.987
c1 = 0.0705	944.01	1517.8	1.007
c1 = 0.0871	945.94	1536.3	1.028

CCCC[P+](CCCC)(CCCC)CCCC.F[B-](F)(F)F [tetrabutylphosphonium tetrafluoroborate] + CN(C)C=O
[2]
Settings	mass density [kg/m3]	speed of sound [m/s]	viscosity [mPa·s]
c1 = 0.0053	944.98	1455.6	0.802
c1 = 0.0213	946.61	1468.7	0.82
c1 = 0.0374	948.4	1483.2	0.837
c1 = 0.0536	950.34	1498.6	0.854
c1 = 0.0699	952.4	1515.4	0.871
c1 = 0.0729	–	–	0.889
c1 = 0.0863	954.5	1533.8	–

CCCC[P+](CCCC)(CCCC)CCCC.F[B-](F)(F)F [tetrabutylphosphonium tetrafluoroborate] + C[S+](C)[O-]
[2]
Settings	mass density [kg/m3]	speed of sound [m/s]	viscosity [mPa·s]
c1 = 0.0046	1096.05	1492.7	1.952
c1 = 0.0184	1096.4	1501.5	1.982
c1 = 0.0323	1097.02	1513.7	2.015
c1 = 0.0463	1097.84	1527.9	2.049
c1 = 0.0604	1098.83	1544.5	2.085
c1 = 0.0746	1099.98	1564.6	2.12
